# Assay results taken from patent US5004747A, “Isoquinolinones” (May & Baker Limited, priority 1988, dated 1991).
# Target: T1, rat hepatic microsomal HMG CoA reductase (Rattus norvegicus, UniProt P51639)
# T1 construct: rat hepatic microsomal HMG CoA reductase; from tissue; host or cells: rat liver microsomes
# T1 sequence (P51639 1-887): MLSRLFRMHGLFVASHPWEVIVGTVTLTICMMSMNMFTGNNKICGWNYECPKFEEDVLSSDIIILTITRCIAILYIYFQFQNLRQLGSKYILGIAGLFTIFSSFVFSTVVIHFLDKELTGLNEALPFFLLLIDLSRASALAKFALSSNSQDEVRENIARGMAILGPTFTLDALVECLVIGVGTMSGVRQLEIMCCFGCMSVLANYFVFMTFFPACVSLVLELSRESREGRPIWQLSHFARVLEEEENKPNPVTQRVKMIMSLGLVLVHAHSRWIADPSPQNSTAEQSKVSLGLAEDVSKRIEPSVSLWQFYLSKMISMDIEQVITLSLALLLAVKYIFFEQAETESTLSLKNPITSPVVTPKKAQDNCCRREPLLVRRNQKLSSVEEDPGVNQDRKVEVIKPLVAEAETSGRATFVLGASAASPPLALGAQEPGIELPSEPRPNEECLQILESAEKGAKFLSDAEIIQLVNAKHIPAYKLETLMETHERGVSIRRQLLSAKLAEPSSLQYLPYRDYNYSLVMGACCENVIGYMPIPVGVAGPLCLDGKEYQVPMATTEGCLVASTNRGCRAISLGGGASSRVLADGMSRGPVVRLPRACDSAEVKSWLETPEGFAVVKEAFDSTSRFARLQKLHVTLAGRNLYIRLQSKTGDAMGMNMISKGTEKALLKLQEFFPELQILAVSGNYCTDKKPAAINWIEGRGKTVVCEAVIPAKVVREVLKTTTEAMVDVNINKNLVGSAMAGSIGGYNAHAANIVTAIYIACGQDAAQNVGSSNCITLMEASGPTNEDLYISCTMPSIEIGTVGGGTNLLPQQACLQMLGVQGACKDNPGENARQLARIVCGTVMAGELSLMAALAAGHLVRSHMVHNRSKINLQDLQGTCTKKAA
# Experiment: inhibition of rat hepatic microsomal HMG CoA reductase activity in vitro (Table I)
# Format: biochemical
# Details: for inhibition at 0.0274 µg/mL: 0.0274 micrograms/ml; for inhibition at 0.082 µg/mL: 0.082 micrograms/ml; for inhibition at 0.25 µg/mL: 0.25 micrograms/ml; for inhibition at 0.74 µg/mL: 0.74 micrograms/ml; for inhibition at 2.22 µg/mL: 2.22 micrograms/ml; for inhibition at 6.66 µg/mL: 6.66 micrograms/ml; for inhibition at 20 µg/mL: 20.0 micrograms/ml; for inhibition at 2 µg/mL: 2.0 micrograms/ml; for inhibition at 0.24 µg/mL: 0.24 micrograms/ml
# Text: In the table the concentrations of the test compounds are expressed in micrograms/ml.
Compound,inhibition at 0.0274 µg/mL [%],inhibition at 0.082 µg/mL [%],inhibition at 0.25 µg/mL [%],inhibition at 0.74 µg/mL [%],inhibition at 2.22 µg/mL [%],inhibition at 6.66 µg/mL [%],inhibition at 20 µg/mL [%],inhibition at 0.0824 µg/mL (0.0824 micrograms/ml) [%],inhibition at 2 µg/mL [%],inhibition at 0.24 µg/mL [%]
"COC(=O)C[C@H](O)C[C@H](O)/C=C/c1c(-c2ccc(F)cc2)c2ccccc2c(=O)n1C(C)C [Compound J, methyl (3R,5S)-(E)-3,5-dihydroxy-7-[4-(4-fluorophenyl)-2-isopropyl-1-oxo-1,2-dihydroisoquinolin-3-yl]hept-6-enoate]",13,28,55,79,92,–,–,–,–,–
"CC(C)n1c(CC[C@@H]2C[C@@H](O)CC(=O)O2)c(-c2ccc(F)cc2)c2ccccc2c1=O [AI, (4R,6R)-6-(2-(4-(4-fluorophenyl)-2-isopropyl-1-oxo-1,2-dihydroisoquinolin-3-yl)ethyl)-4-hydroxy-3,4,5,6-tetrahydro-2H-pyran-2-one]",–,16,38,62,81,92,–,–,–,–
"Cn1c(/C=C/C(O)CC(O)CC(=O)O)c(-c2ccccc2)c2ccccc2c1=O (stereo not shown) [B, (E)-3,5-dihydroxy-7-(2-methyl-1-oxo-4-phenyl-1,2-dihydroisoquinolin-3-yl)hept-6-enoic acid]",–,–,–,–,–,–,65,–,5,–
"CC(C)c1c(/C=C/[C@@H]2C[C@@H](O)CC(=O)O2)n(-c2ccc(F)cc2)c(=O)c2ccccc12 [Compound I, (4R,6S)-(E)-4-hydroxy-6-[2-{2-(4-fluorophenyl)-4-isopropyl-1-oxo-1,2-dihydroisoquinolin-3-yl}ethen-1-yl]-3,4,5,6-tetrahydro-2H-pyran-2-one]",25,48,72,88,96,–,–,–,–,–
"CCOC(=O)CC(O)CC(O)/C=C/c1c(-c2ccc(F)cc2)c2ccccc2c(=O)n1C(C)C (stereo not shown) [Compound D, ethyl (E)-3,5-dihydroxy-7-[4-(4-fluorophenyl)-2-isopropyl-1-oxo-1,2-dihydroisoquinolin-3-yl]hept-6-enoate]",–,–,–,35,62,85,94,–,–,11
"CC(C)n1c(/C=C/C2CC(O)CC(=O)O2)c(-c2ccc(F)cc2)c2ccccc2c1=O (stereo not shown) [Compound G, (E)-4-hydroxy-6-[2-{4-(4-fluorophenyl)-2-isopropyl-1-oxo-1,2-dihydroisoquinolin-3-yl}ethenyl]-3,4,5,6-tetrahydro-2H-pyran-2-one]",–,14,29,58,81,93,97,–,–,–
"CC(C)n1c(/C=C/C(O)CC(O)CC(=O)O)c(-c2ccc(F)cc2)c2ccccc2c1=O (stereo not shown) [Compound F, sodium (E)-3,5-dihydroxy-7-[4-(4-fluorophenyl)-2-isopropyl-1-oxo-1,2-dihydroisoquinolin-3-yl]hept-6-enoate]",–,–,–,59,80,91,97,–,–,37
"CC(C)n1c(/C=C/C(O)CC(O)CC(=O)O)c(-c2ccc(F)cc2)c2ccccc2c1=O (stereo not shown) [Compound E, (E)-3,5-dihydroxy-7-[4-(4-fluorophenyl)-2-isopropyl-1-oxo-1,2-dihydroisoquinolin-3-yl]hept-6-enoic acid]",–,–,–,28,61,82,94,–,–,15
"CC(C)c1c(/C=C/[C@@H]2C[C@@H](O)CC(=O)O2)n(CC2CCCCC2)c(=O)c2ccccc12 [AB, (4R,6S)-(E)-6-(2-(2-cyclohexylmethyl-4-isopropyl-1-oxo-1,2-dihydroisoquinolin-3-yl)ethen-1-yl)-4-hydroxy-3,4,5,6-tetrahydro-2H-pyran-2-one]",–,–,–,20,41,66,–,–,–,–
"CC(C)c1c(/C=C/[C@@H]2C[C@@H](O)CC(O)O2)n(-c2ccc(F)cc2)c(=O)c2ccccc12 (mixture of isomers) [Compound M, (2RS,4R,6S)-(E)-2,4-dihydroxy-6-[2-(2-(4-fluorophenyl)-4-isopropyl-1-oxo-1,2-dihydroisoquinolin-3-yl)ethen-1-yl]-3,4,5,6-tetrahydro-2H-pyran]",–,27,18,31,44,56,72,–,–,–
"CC(C)n1c(/C=C/[C@@H](O)C[C@@H](O)CC(=O)O)c(-c2ccc(F)cc2)c2ccccc2c1=O [AF, sodium (3R,5S)-(E)-3,5-dihydroxy-7-(4-(4-fluorophenyl)-2-isopropyl-1-oxo-1,2-dihydroisoquinolin-3-yl)hept-6-enoate]",15,38,65,83,93,95,–,–,–,–
"Cn1c(/C=C/C(O)CC(O)CC(=O)O)c(-c2ccccc2)c2ccccc2c1=O (stereo not shown) [BA, sodium (E)-3,5-dihydroxy-7-(2-methyl-1-oxo-4-phenyl-1,2-dihydroisoquinolin-3-yl)hept-6-enoate]",–,–,–,–,–,–,61,–,0,–

# Further lines, with some results ahead:
inhibition at 0.0274 µg/mL [%],inhibition at 0.082 µg/mL [%],inhibition at 0.25 µg/mL [%],inhibition at 0.74 µg/mL [%],inhibition at 2.22 µg/mL [%],inhibition at 6.66 µg/mL [%],inhibition at 20 µg/mL [%],inhibition at 0.0824 µg/mL (0.0824 micrograms/ml) [%],Compound,inhibition at 2 µg/mL [%],inhibition at 0.24 µg/mL [%]
–,49,66,85,95,99,100,–,"CC(C)n1c(/C=C/[C@@H]2C[C@@H](O)CC(=O)O2)c(-c2ccc(F)cc2)c2ccccc2c1=O [H, (4R,6S)-(E)-4-hydroxy-6-[2-{4-(4-fluorophenyl)-2-isopropyl-1-oxo-1,2-dihydroisoquinolin-3-yl}-ethen-1-yl]-3,4,5,6-tetrahydro-2H-pyran-2-one]",–,–
–,16,35,61,83,92,96,–,"O=C1C[C@H](O)C[C@@H](/C=C/c2c(-c3ccc(F)cc3)c3ccccc3c(=O)n2CC2CC2)O1 [X, (4R,6S)-(E)-6-(2-(2-cyclopropylmethyl-4-(4-fluorophenyl)-1-oxo-1,2-dihydroisoquinolin-3-yl)ethen-1-yl)-4-hydroxy-3,4,5,6-tetrahydro-2H-pyran-2-one]",–,–
–,–,13,34,59,80,–,16,"COc1ccc(-n2c(/C=C/[C@@H]3C[C@@H](O)CC(=O)O3)c(C(C)C)c3ccccc3c2=O)cc1 [N, (4R,6S)-(E)-4-hydroxy-6-(2-(2-(4-methoxyphenyl)-4-isopropyl-1-oxo-1,2-dihydroisoquinolin-3-yl)ethen-1-yl)-3,4,5,6-tetrahydro-2H-pyran-2-one]",–,–
–,–,–,10,40,67,85,–,"Cc1c(/C=C/[C@@H]2C[C@@H](O)CC(=O)O2)n(-c2ccc(F)cc2)c(=O)c2ccccc12 [V, (4R,6S)-(E)-6-(2-(2-(4-fluorophenyl)-4-methyl-1-oxo-1,2-dihydroisoquinolin-3-yl)ethen-1-yl)-4-hydroxy-3,4,5,6-tetrahydro-2H-pyran-2-one]",–,–
–,21,35,56,78,91,97,–,"CC(C)c1c(/C=C/[C@@H]2C[C@@H](O)CC(=O)O2)n(-c2ccc(Cl)cc2)c(=O)c2ccccc12 [R, (4R,6S)-(E)-6-(2-(2-(4-chlorophenyl)-4-isopropyl-1-oxo-1,2-dihydroisoquinolin-3-yl)ethen-1-yl)-4-hydroxy-3,4,5,6-tetrahydro-2H-pyran-2-one]",–,–
–,27,39,63,81,90,90,–,"Cc1cc(-n2c(/C=C/[C@@H]3C[C@@H](O)CC(=O)O3)c(C(C)C)c3ccccc3c2=O)ccc1F [P, (4R,6S)-(E)-6-(2-(2-(4-fluoro-3-methylphenyl)-4-isopropyl-1-oxo-1,2-dihydroisoquinolin-3-yl)ethen-1-yl)-4-hydroxy-3,4,5,6-tetrahydro-2H-pyran-2-one]",–,–
